The nature of series [1]: Plasma pharmacokinetics of free CPT in mice (comparison). Type of series: in vivo. Conditions: after 8 h, CPT alone at 10 mg/kg, CD2F1 mice.
Protocol: Free CPT injected at 10 mg/kg into CD2F1 mice is shown as comparison. […] (B) Plasma concentration of unconjugated CPT as a function of time.
For series [2], the system named is BT-474 xenograft tumors. How it is done:
Treatments began on day 1. […] All treatments were freshly prepared and given via intravenous tail vein injection. Injections were standardized at 150 μl per 20 g body weight of mice. […] Tumor sizes were recorded three times a week using caliper measurements (length×width2/2) and health of the animals was continuously monitored. Animals were euthanized when tumor volumes exceeded 1000 mm^3. Six weeks after beginning of the treatment, animals were euthanized by CO2 asphyxiation.

Setting [3] is: CPT 8 mg/kg i.v. once per week for 3 weeks, Nbegin 8.
[4] abbreviates: Irinotecan 80 mg/kg i.v. once per week for 3 weeks, Nbegin 8.

Like-named read-outs stand apart in the source and are kept apart here.

With `CC[C@@]1(O)C(=O)OCc2c1cc1n(c2=O)Cc2cc3ccccc3nc2-1` [CPT, Camptothecin], the “Injected dose remaining in circulation” value in series [1] is 0.01%. The “Tumor inhibition compared to control group” value in series [2] (CPT 8 mg/kg i.v. once per week for 3 weeks) was “no tumor inhibition”. In series [2] (setting [3]), the “NNTRD (number of non-treatment related death)” value stood at 0, the “NTRD (number of treatment related death)” value was found to be 4 and the “Nend (number of animals surviving to end of study)” value is 8/0.

Take `CCc1c2c(nc3ccc(OC(=O)N4CCC(N5CCCCC5)CC4)cc13)-c1cc3c(c(=O)n1C2)COC(=O)[C@]3(O)CC` [Irinotecan]: the “Tumor inhibition compared to control group” value in series [2] (Irinotecan 80 mg/kg i.v. once per week for 3 weeks) is recorded as “non-significant tumor inhibition”. For the same molecule, in series [2] (setting [4]), the “NNTRD (number of non-treatment related death)” value was found to be 0, the “NTRD (number of treatment related death)” value is 1, the “Nend (number of animals surviving to end of study)” value is reported as 8/7 and the “Neuthan (number of animals euthanized due to exceeding tumor size limit of 1000 mm^3)” value was determined as 0. The “Nreg to zero (number of animals with tumors regressed to zero at the end of study)” value in series [2] (setting [4]) stood at 0.

Source of the values: patent US9132097B2, “Nanoparticles stabilized with nitrophenylboronic acid compositions” (California Institute of Technology, priority 2013, dated 2015).
